Data on four molecules can be found in patent publication US10752607B2, “Polymorphs of N-[(6-cyano-2-fluoro)-3-methoxyphenyl)methyl]-3-(methoxymethyl)-1-({4-[(2-oxopyridin-1-yl)methyl]phenyl}methyl)pyrazole-4-carboxamide as kallikrein inhibitors” (KALVISTA PHARMACEUTICALS LIMITED, priority 2016, dated 2020).

The subject of one data set is rats. Conditions: systemic administration; cited from earlier work.
The conditions of data set [1]: in vivo; cited from earlier work.
Data set [2] in a line: Pharmacokinetic study, single oral dose in male Sprague-Dawley rats. The conditions noted are these: male Sprague-Dawley rat, 10% DMSO/10% cremophor/80% SWFI, plasma. The class given is in vivo. As to the method:
A pharmacokinetic study of N-[(6-cyano-2-fluoro-3-methoxyphenyl)methyl]-3-(methoxymethyl)-1-({4-[(2-oxopyridin-1-yl)methyl]phenyl}methyl)pyrazole-4-carboxamide was performed to assess the pharmacokinetics following a single oral dose in male Sprague-Dawley rats. Two rats were given a single po dose of 5 mL/kg of a nominal 2 mg/mL (10 mg/kg) composition of test compound in vehicle. Following dosing, blood samples were collected over a period of 24 hours. Sample times were 5, 15 and 30 minutes then 1, 2, 4, 6, 8 and […]. Following collection, blood samples were centrifuged and the plasma fraction analysed for concentration of test compound by LCMS.

A further data set deals with T1, Human FXIa (Homo sapiens, UniProt P03951).
T1 construct: purchased Enzyme Research Laboratories
Nature of the data set: Determination of the % inhibition for FXIa (fluorogenic substrate Z-Gly-Pro-Arg-AFC). The class given is biochemical. The conditions noted are these: 40 μM test compound, 25° C. As to the method:
Determination of the % Inhibition for FXIa
FXIa inhibitory activity in vitro was determined using standard published methods (see e.g. Johansen et al., Int. J. Tiss. Reac. 1986, 8, 185; Shori et al., Biochem. Pharmacol., 1992, 43, 1209; Stürzebecher et al., Biol. Chem. Hoppe-Seyler, 1992, 373, 1025). Human FXIa (Enzyme Research Laboratories) was incubated at 25° C. with the fluorogenic substrate Z-Gly-Pro-Arg-AFC and 40 μM of the test compound. Residual enzyme activity (initial rate of reaction) was determined by measuring the change in […].

For data set [3], the system named is LPS-induced disseminated intravascular coagulation. Conditions: cited from earlier work.
The subject of data set [4] is intrinsic pathway of coagulation. The conditions noted are these: in vitro; cited from earlier work.
For data set [5] the following is noted: contacting blood with the inhibitor; cited from earlier work.

T1 sequence (P03951 388-625 limits assumed): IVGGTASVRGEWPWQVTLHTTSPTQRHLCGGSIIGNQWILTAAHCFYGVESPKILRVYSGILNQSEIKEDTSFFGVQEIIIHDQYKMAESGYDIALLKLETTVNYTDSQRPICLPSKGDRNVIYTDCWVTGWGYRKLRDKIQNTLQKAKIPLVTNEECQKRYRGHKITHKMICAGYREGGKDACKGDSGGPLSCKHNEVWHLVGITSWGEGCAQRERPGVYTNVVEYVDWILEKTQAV
T1 sequence (P03951 19-387 partner limits assumed): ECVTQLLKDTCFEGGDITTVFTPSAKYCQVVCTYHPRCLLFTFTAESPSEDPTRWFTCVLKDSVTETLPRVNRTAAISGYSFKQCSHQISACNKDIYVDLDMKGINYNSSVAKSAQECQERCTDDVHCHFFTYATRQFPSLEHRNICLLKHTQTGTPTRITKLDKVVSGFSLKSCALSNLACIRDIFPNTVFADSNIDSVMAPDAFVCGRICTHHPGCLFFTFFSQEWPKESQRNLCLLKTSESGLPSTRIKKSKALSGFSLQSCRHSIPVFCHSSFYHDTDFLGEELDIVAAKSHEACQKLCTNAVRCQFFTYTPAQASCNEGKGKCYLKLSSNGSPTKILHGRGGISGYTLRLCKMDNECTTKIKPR

On to `N=C(N)c1ccc(CNC(=O)c2cnn(Cc3ccccc3)c2)cc1` [ASP-440], for which the hematoma expansion result with rats is recorded as “reduced hematoma expansion”. Besides, the oral availability result in data set [1] was “poor oral availability”.
By Cmax is commonly meant the peak of the concentration-time curve. Broadly, the Tmax is the time from dosing to the highest level. The inhibition is the relative decrease from the control value, in per cent. Read a low inhibition as a response near the control. In the case of `COCc1nn(Cc2ccc(Cn3ccccc3=O)cc2)cc1C(=O)NCc1c(C#N)ccc(OC)c1F` [N-[(6-cyano-2-fluoro-3-methoxyphenyl)methyl]-3-(methoxymethyl)-1-({4-[(2-oxopyridin-1-yl)methyl]phenyl}methyl)pyrazole-4-carboxamide], in data set [2] (single po dose 5.5 mg/kg), the Cmax is 397 ng/mL and the time to peak (Tmax) was 30 min. In data set [2] (single po dose 7.8 mg/kg), the highest level (Cmax) was 360 ng/mL and the Tmax is 60 min. Moreover, on Human FXIa, the inhibition at 40 µM came out at 28%.
Consider `Cl.NCC1CCC(C(=O)N[C@@H](Cc2ccccc2)C(=O)Nc2ccc(CC(=O)O)cc2)CC1` (stereo partly shown) [PKSI-527], for which the “platelet count, fibrinogen level and FDP level” value in data set [3] is “significantly suppressed the decrease in platelet count and fibrinogen level as well as the increase in FDP level”.
For the molecule Ecallantide, the “contact activated induced coagulation” value in data set [4] is given as “delay contact activated induced coagulation”. Moreover, the “activated clotting time (ACT)” value in data set [5] is “increase in activated clotting time (ACT)”.
